{"source": "patent US20100203001A1", "about": "“PROCESS FOR FORMING DISULFIDE BRIDGES” (APLAGEN GMBH, priority 2007, published 2010)", "key": {"[1]": {"experiment": "tests of the capacity to promote the formation of disulfide bridges", "assay_type": "biochemical", "protocol": "The tests were carried out as described previously (see above). The substance tested and the amounts tested are stated in each case."}, "BB57": {"test_system": "BB57", "experiment": "cyclization (oxidation) of EPO mimetic peptide BB57 to BB57C in air in water, monitored by HPLC or Ellman's test", "assay_type": "biochemical"}, "EPO mimetic peptide": {"test_system": "EPO mimetic peptide", "experiment": "cyclization of an EPO mimetic peptide that can only be cyclized with great difficulty", "assay_type": "biochemical", "conditions": "10 mg/ml caffeine", "protocol": "Some of the EPO mimetic peptides can only be cyclized with great difficulty. An example is the following peptide:\nThe yield after approx. 21 h in solution was already >90%."}, "hair": {"test_system": "hair", "experiment": "oxidation of hair reduced with ammonium thioglycolate Wave-Lotion, free thiol groups by Ellman's reagent (412 nm)", "conditions": "air, room temperature, 3 days", "protocol": "The solution is removed and the hair is then washed 6 times with 400 μl H2O each time.\nFor determination of the free thiol groups still remaining, after removing the reaction solution the hair is reacted with fEllman's reagent (5,5′-dithiobis(2-nitrobenzoic acid), DTNB). […] The hair samples are put in 200 μl each of 100 mM phosphate buffer, pH 8.0 and 1 mM EDTA, and 300 μl of a 1 mM DTNB solution in the same EDTA-containing buffer. The solution is analyzed after a few minutes in a UV-Vis spectrometer."}, "human hair": {"test_system": "human hair", "experiment": "oxidation of reduced human hair by heterocyclic compound with metal ions, thiol groups by Ellman's reagent", "protocol": "To this end, for each measuring point the disulfide bridges of 5 mg hair were first reduced using ammonium thioglycolate/ammonium thiolactate (commercially available formulations for permanent waves) in order to open them. Subsequently, the reduction solution is removed and the hair was washed with water several times. Then, the hair was subjected to the different oxidation mixtures in order to again close the disulfide bridges. After filtrating these solutions, the amount of thiol groups was determined using the Ellman's reagent. Thereby, a statement on the speed and efficiency of the oxidation step and thus the renewed closure of the disulfide bridges can be made.\nIn several experiments combinations of different metal additives in place of higher amounts of a single salt component are also used. The amounts in the mixture “artificial tap water” described below are based on the maximum values of the regulation for tap water of the FRG, wherein the following combination of metal ions was used: 0.2 mg/L iron ([…], 5 mg/L zinc (Zn^2+), 2 mg/L copper (Cu^2+) and some hardening components 100 mg/L calcium (Ca^2+) and 50 mg/L magnesium (Mg^2+)."}, "oxytocin, reduced (OxyR)": {"target": "oxytocin, reduced (OxyR) (Homo sapiens, UniProt P01178)", "experiment": "cyclization of reduced oxytocin-derived peptide (OxyR) to oxytocin (Oxy) in air, HPLC", "assay_type": "biochemical", "conditions": "GSSG optionally added with caffeine", "protocol": "The reaction mixture was analyzed by HPLC at regular intervals, in order to determine the contents of OxyR and the product oxytocin (Oxy)."}, "[2]": {"conditions": "single agent in water (10 mg/ml caffeine or 5 mg/ml GSSG)"}, "[3]": {"conditions": "in combination with artificial tap water salt mixture"}}, "note": "Entries after “also recorded” stand apart in the source; their conditions may differ. Where two headings read alike, the source gives them in different places."}
{"compound": "Cn1ccc(=O)[nH]c1=O", "note": "[1-methyl-uracil]", "values": [{"measurement": "capacity to promote the formation of disulfide bridges", "setting": "[1]", "result": "good activity"}]}
{"compound": "O=C(O)c1cnccn1", "note": "[pyrazine-carboxylic acid]", "values": [{"measurement": "capacity to promote the formation of disulfide bridges", "setting": "[1]", "result": "do not have the capacity to promote the formation of disulfide bridges"}]}
{"compound": "Nc1cc(N2CCCCC2)nc(N)[n+]1[O-]", "note": "[minoxidil, 6-(1-piperidinyl)-2,4-pyrimidinediamine-3-oxide]", "values": [{"measurement": "time until oxidation is completed", "setting": "BB57; 0.7 mg BB57 and 0.3 mg substance in 1 ml distilled water, in the air, HPLC", "result": "approx. 29 h"}]}
{"compound": "NC(=O)c1cnccn1", "note": "[pyrazine amide]", "values": [{"measurement": "capacity to promote the formation of disulfide bridges", "setting": "[1]", "result": "do not have the capacity to promote the formation of disulfide bridges"}]}
{"compound": "Oc1cc(O)ncn1", "note": "[4,6-dihydroxy-pyrimidine]", "values": [{"measurement": "capacity to promote the formation of disulfide bridges", "setting": "[1]", "result": "active"}]}
{"compound": "Cc1nc(O)cc(O)n1", "note": "[4,6-dihydroxy-2-methylpyrimidine]", "values": [{"measurement": "capacity to promote the formation of disulfide bridges", "setting": "[1]", "result": "active"}]}
{"compound": "O=C1CC(=O)NC(=O)N1", "note": "[barbituric acid]", "values": [{"measurement": "capacity to promote the formation of disulfide bridges", "setting": "[1]", "result": "Active"}]}
{"compound": "Cn1c(=O)c2c(ncn2C)n(C)c1=O", "note": "[caffeine]", "values": [{"measurement": "reaction time until complete conversion", "setting": "BB57", "result": "about 10 h"}, {"measurement": "time of cyclisation", "setting": "BB57", "result": "about an hour; also recorded: shortened"}, {"measurement": "time until complete conversion", "setting": "BB57", "result": "about 15 h"}, {"measurement": "time until conversion is quantitative", "setting": "BB57", "result": "ten"}, {"measurement": "time until oxidation is completed", "setting": "BB57", "result": "approx. 24 h"}, {"measurement": "time until cyclization successful", "setting": "EPO mimetic peptide", "result": "≤ 24", "unit": "h"}, {"measurement": "oxidation of the thiol groups of reduced hair", "setting": "hair; combination 10 mg/ml caffeine and 5 mg/ml GSSG", "result": "almost quantitative oxidation of the thiol groups"}, {"measurement": "oxidation of the thiol groups of reduced hair", "setting": "hair; [2]", "result": "partial oxidation of the thiol groups"}, {"measurement": "strength as catalysator on hair", "setting": "human hair; comparison with alloxan", "result": "weaker compared to alloxan"}, {"measurement": "duration of the reaction compared with alloxan", "setting": "human hair; [3]", "result": "takes longer"}, {"measurement": "oxidation of reduced hair", "setting": "human hair; [3]", "result": "completely oxidize the hair"}]}
{"compound": "O=C(O)c1cc(O)nc(O)n1", "note": "[uracil-6-carboxylic acid]", "values": [{"measurement": "capacity to promote the formation of disulfide bridges", "setting": "[1]", "result": "active"}]}
{"compound": "Cc1cc(O)nc(C(C)C)n1", "note": "[2-isopropyl-6-methyl-4-pyrimidinol]", "values": [{"measurement": "capacity to promote the formation of disulfide bridges", "setting": "[1]", "result": "active"}]}
{"compound": "Cc1cc(O)nc(C)n1", "note": "[2,4-dimethyl-6-hydroxypyrimidine]", "values": [{"measurement": "capacity to promote the formation of disulfide bridges", "setting": "[1]", "result": "active"}]}
{"compound": "Nc1nc(N)nc(N)n1", "note": "[melamine]", "values": [{"measurement": "capacity to promote the formation of disulfide bridges", "setting": "[1]", "result": "do not have the capacity to promote the formation of disulfide bridges"}]}
{"compound": "O=C1NC(=O)C(=NO)C(=O)N1", "note": "[violuric acid]", "values": [{"measurement": "capacity to promote the formation of disulfide bridges", "setting": "[1]", "result": "Active"}]}
{"compound": "potassium hexacyanoferrate", "values": [{"measurement": "effect of stable metal ion complex on cyclisation by alloxan", "setting": "BB57; alloxan plus potassium hexacyanoferrate(II) or (III) (30 μM), Ellman's reagent", "result": "accelerating effect"}]}
{"compound": "O=c1ccc(=O)[nH][nH]1", "note": "[1,2-dihydro-3,6-pyridazinedione]", "values": [{"measurement": "capacity to promote the formation of disulfide bridges", "setting": "[1]", "result": "active"}]}
{"compound": "Nc1cnccn1", "note": "[aminopyrazine]", "values": [{"measurement": "capacity to promote the formation of disulfide bridges", "setting": "[1]", "result": "do not have the capacity to promote the formation of disulfide bridges"}]}
{"compound": "O=S(=O)([O-])[O-].[Fe+2]", "note": "[iron(II) sulfate]", "values": [{"measurement": "accelerating effect on the cyclisation of BB57", "setting": "BB57", "result": "no activity"}]}
{"compound": "Nc1ccnc(N)n1", "note": "[2,4-diaminopyrimidine]", "values": [{"measurement": "capacity to promote the formation of disulfide bridges", "setting": "[1]", "result": "do not have the capacity to promote the formation of disulfide bridges"}]}
{"compound": "glutathione in oxidized form [GSSG]", "values": [{"measurement": "conversion of the peptide", "setting": "BB57", "result": "only takes place slowly"}, {"measurement": "influence on rate or yield", "setting": "oxytocin, reduced (OxyR)", "result": "no influence on rate or yield"}, {"measurement": "oxidation of the thiol groups of reduced hair", "setting": "hair; [2]", "result": "partial oxidation of the thiol groups"}]}
{"compound": "O=C(O)CN(CCN(CC(=O)O)CC(=O)O)CC(=O)O", "note": "[EDTA, ethylenediaminetetraacetic acid]", "values": [{"measurement": "effect of complexing agent on the strong effect of the iron ions", "setting": "BB57; alloxan plus iron ions (3 μM) with two equivalents EDTA", "result": "slightly weakened"}]}
{"compound": "Cc1cc(O)nc(O)n1", "note": "[2,4-dihydroxy-6-methylpyrimidine]", "values": [{"measurement": "capacity to promote the formation of disulfide bridges", "setting": "[1]", "result": "active"}]}
{"compound": "O=C1NC(=O)C(=O)C(=O)N1", "note": "[alloxan, alloxan monohydrate]", "values": [{"measurement": "effect of iron(III) ions on oxidation", "setting": "BB57", "result": "accelerating effect"}, {"measurement": "reaction time", "setting": "BB57", "result": "less than an hour"}, {"measurement": "time until almost completely cyclised", "setting": "BB57", "result": "about 2 h"}, {"measurement": "reverse oxidation of the thiols in hair", "setting": "human hair; 0.1% alloxan solution with low amounts of iron(III) ions, after 10 minutes", "result": "almost complete reverse oxidation"}, {"measurement": "advantage due to the addition of salt", "setting": "human hair; alloxan with iron(III) chloride or artificial tap water, control after 10 minutes", "result": "small advantage"}, {"measurement": "oxidation of reduced hair", "setting": "human hair; [3]", "result": "completely oxidize the hair"}, {"measurement": "capacity to promote the formation of disulfide bridges", "setting": "[1]", "result": "Active"}]}
